# Experimental data taken from paper PMC3005895 (Journal of Nucleic Acids, 2010).
# T1: Schizosaccharomyces pombe Pot1(DBD) (Schizosaccharomyces pombe, UniProt O13988)
# T1 construct: gift of Dr. Deborah Wuttke, University of Colorado, Boulder
# T1 sequence (O13988 1-389): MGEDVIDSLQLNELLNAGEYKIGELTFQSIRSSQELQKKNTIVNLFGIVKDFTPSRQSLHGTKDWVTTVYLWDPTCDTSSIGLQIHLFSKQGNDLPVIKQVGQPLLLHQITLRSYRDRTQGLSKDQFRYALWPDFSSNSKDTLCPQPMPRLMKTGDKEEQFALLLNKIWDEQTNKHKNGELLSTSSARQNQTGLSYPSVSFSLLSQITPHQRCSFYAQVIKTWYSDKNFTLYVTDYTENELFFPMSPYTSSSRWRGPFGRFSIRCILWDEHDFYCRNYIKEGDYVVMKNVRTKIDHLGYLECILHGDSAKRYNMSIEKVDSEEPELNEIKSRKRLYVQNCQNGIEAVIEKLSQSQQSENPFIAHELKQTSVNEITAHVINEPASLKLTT
# Tests used:
# [1] = biological target: T2, RPA DBD-A/B (Homo sapiens, UniProt P27694); experiment: Reversibility of inhibition: dialysis, then fluorescence polarization of DBD-A/B binding to F-dT12; settings: preincubation 30 minutes, dialysis overnight, FP with F-dT12
# T2 construct: we subcloned amino acids 181–432 of human RPA p70; inferred from pET15b vector and nickel-NTA purification) (N); made in house; host or cells: E. coli BL21(DE3)
# Protocol: Fluorescence polarization experiments were preformed as previously described in [23]. SMIs were diluted in H1 buffer (10 mM HEPES, pH 7.2, 1 mM DTT, 0.01% NP-40, and 100 mM NaCl), and the final DMSO concentration was kept below 1%.
# To assess the reversibility of select SMIs, the indicated SMI was preincubated with RPA or the DBD-A/B construct for 30 minutes at room temperature. The resulting solution was dialyzed versus 500 mL H1 buffer at 4°C using 0.5 ml, 12,000 molecular weight cut-off dialysis cassettes (Pierce). The resulting protein was recovered and concentration determined by Bradford analysis. Analysis of DNA binding activity was performed either by EMSA or FP. In each series of experiments, there was no loss of DNA binding activity in vehicle control-treated protein.
# Figure 3 Irreversible inhibition of RPA DBD-A/B-DNA-binding activity by CheSS19. (a) EMSA analysis of CheSS19 inhibition of RPA DBD-A/B. Assays were performed as described in the legend to Figure 2. […] (c) Quantification of the binding data presented in panels (a) and (b). (d) Fluorescence polarization analysis of CheSS19 inactivated RPA DBD-A/B. RPA DBD-A/B was preincubated with vehicle (1% DMSO) or CheSS19 (1 pmol in 1% DMSO) for 30 minutes at 37°C. […] The protein was recovered, and DNA-binding activity measured by FP analysis of binding to an F-dT12 substrate was performed as described in “Section 2”. […]
# [2] = test system: T3, E. coli SSB; experiment: E. coli SSB binding assay (EMSA); settings: for effect on EcSSB binding to ssDNA (result in words): EMSA, preincubation with SMI
# T3 construct: purchased Enzymatics, Beverly, MA
# Protocol: E. coli SSB Binding Assay These EMSAs were performed similarly to those for the RPA constructs, with the following exceptions. Reactions contained 25 nM of 5′-[^32P]-labeled 3Pc3 ssDNA and 3.3 nM (assuming homotetramer formation) SSB protein (Enzymatics, Beverly, MA). Reactions (20 μL) were carried out in 20 mM HEPES, pH 7.5, 1 mM DTT, 0.01% NP-40, 100 mM NaCl and resolved by 6% native polyacrylamide gel electrophoresis at 25 mA for 2 hours. Gels were dried and quantified via phosphorimager analysis as described above.
# [3] = Cellular activity (data not shown); type: cell-based
# [4] = biological target: T4, full-length heterotrimeric RPA (Homo sapiens, UniProt P27694); set-up: method as in earlier work; settings: prior observation; cited from earlier work
# T4 construct: Human full-length, untagged heterotrimeric RPA (RPA) was purified as previously described; made in house
# [5] = biological target: T2, RPA DBD-A/B; experiment: EMSA of RPA DBD-A/B binding to ssDNA; settings: for inhibition of DBD-A/B DNA binding (result in words): 25–200 μM inhibitor
# Protocol: DBD-A/B The sequence encoding the RPA p70 DNA-binding domains A and B was subcloned from the hrRPA plasmid (provided by Dr. Marc Wold, University of Iowa) into the pET15b (Novagen) vector, and the protein was expressed in BL21(DE3) cells (Stratagene) as previously described in [9]. Briefly, cells were grown to an OD600 of 0.8, induced with 0.5 mM isopropyl-1-thio-β-D-galactopyranoside (IPTG) at 37°C for 2-3 hours. Small-scale DBD-A/B preparations were obtained from 1 L cultures, and, following induction, cells were harvested by centrifugation at 700 × g for 30 minutes at 4°C. The pellets were suspended in Buffer A (20 mM Tris, pH 7.5, 10% glycerol, 500 mM NaCl, 10 mM β-mercaptoethanol (BME), and 1 μg/mL phenylmethanesulfonyl fluoride (PMSF), leupeptin, and pepstatin) at 1 mL/gram of cells. The cells were lysed by sonication and insoluble material sedimented at 15,000 × g for 30 minutes at 4°C. The supernatant was then loaded onto a 10 mL phosphocellulose column, equilibrated with Buffer A, and the flow-through material collected. Imidazole was added to the flow-through to a final concentration of 5 mM, which was then loaded onto a 2 mL nickel-NTA-agarose column. The column was then washed with Buffer A containing 50 mM imidazole after which protein was eluted from the column using a gradient from 50–500 mM imidazole. Fractions were analyzed for protein content using Bradford and SDS-PAGE analysis in addition to assessment of DNA binding activity as determined by anisotropy. Fractions containing the DBD-A/B protein were pooled and dialyzed overnight in Buffer B (1 mM HEPES, pH 7.2, 10 mM dithiothreitol (DTT), 50 mM NaCl, and 1 μg/mL PMSF, pepstatin, and leupeptin) and aliquots stored at −80°C.
# (§1) RPA and DBD-A/B Binding EMSAs were performed as previously described in [16] using a purine rich ssDNA substrate (3Pc3). Briefly, reactions contained 12.5 nM 5′-[^32P]-labeled 3Pc3 ssDNA and the indicated concentrations of RPA or DBD-A/B. Protein was preincubated with the indicated concentration of SMI for 30 minutes at 37°C. DNA was then added and reactions incubated for additional 5 minutes at room temperature in a final reaction volume of 40 μL. Reactions were then resolved on a 6% native polyacrylamide gel and electrophoresed at 170 volts for 1 hour. Gels were dried and quantified via phosphorimager analysis and ImageQuant software (Molecular Dynamics).
# [6] = biological target: T4, full-length heterotrimeric RPA; experiment: EMSA of full-length heterotrimeric RPA binding to ssDNA; settings: 3Pc3 ssDNA, three independent experiments, read-out: IC50 for inhibition of full-length heterotrimeric RPA
# Protocol: RPA Human full-length, untagged heterotrimeric RPA (RPA) was purified as previously described in [17].
# as §1
# [7] = biological target: T4, full-length heterotrimeric RPA; experiment: Reversibility of inhibition: dialysis, then EMSA of full-length RPA; type: binding; settings: dialysis overnight, EMSA with 34-base DNA
# Protocol: as §1
# To assess the reversibility of select SMIs, the indicated SMI was preincubated with RPA or the DBD-A/B construct for 30 minutes at room temperature. The resulting solution was dialyzed versus 500 mL H1 buffer at 4°C using 0.5 ml, 12,000 molecular weight cut-off dialysis cassettes (Pierce). The resulting protein was recovered and concentration determined by Bradford analysis. Analysis of DNA binding activity was performed either by EMSA or FP. […]
# Figure 5 Irreversible inactivation of full-length heterotrimeric RPA by MCI13E. […] DNA binding activity of the resulting protein was assessed by EMSA using a 5′-[^32P]-ss 34-base DNA as described in “Section 2.” Lanes 1–4 predialysis, lanes 5 and 6 postdialysis.
# [8] = biological target: T1, Schizosaccharomyces pombe Pot1(DBD); experiment: Schizosaccharomyces pombe Pot1(DBD) binding assay (EMSA); settings: 15-mer ssDNA, three independent experiments, read-out: IC50 for inhibition of SpPot1(DBD) ssDNA binding
# Protocol: Schizosaccharomyces pombe Pot1(DBD) Binding Assay EMSAs were performed as described above for EcSSB. Reactions contained 25 nM of 5′-[^32P]-labeled 15-mer ssDNA and 20 nM Pot1(DBD) protein (generously provided by Dr. Deborah Wuttke, University of Colorado, Boulder). Reactions (20 μL) were carried out in 20 mM HEPES, pH 7.5, 1 mM DTT, 0.01% NP-40, 100 mM NaCl, at room temperature, and resolved by 6% native polyacrylamide gel electrophoresis at 25 mA for 2 hours. Gels were dried and quantified via phosphorimager analysis as described above.
# [9] = biological target: T4, full-length heterotrimeric RPA; settings: highest concentration tested (100 μM); cited from earlier work
# [10] = test system: human lung cancer cell model; settings: cited from earlier work
# [11] = biological target: RPA DBD-A/B (human, UniProt P27694 181-432); experiment: EMSA; ~50% of DNA bound at 125 nM protein; data not shown; DNA 12.5 nM; RPA/DBD-A/B EMSA: 12.5 nM DNA, protein preincubated with inhibitor 30 min at 37 C, then DNA 5 min at room temp; FP: 20 nM DNA, inhibitor diluted in H1 buffer (1)
# RPA DBD-A/B (human, UniProt P27694 181-432), sequence (P27694 181-432): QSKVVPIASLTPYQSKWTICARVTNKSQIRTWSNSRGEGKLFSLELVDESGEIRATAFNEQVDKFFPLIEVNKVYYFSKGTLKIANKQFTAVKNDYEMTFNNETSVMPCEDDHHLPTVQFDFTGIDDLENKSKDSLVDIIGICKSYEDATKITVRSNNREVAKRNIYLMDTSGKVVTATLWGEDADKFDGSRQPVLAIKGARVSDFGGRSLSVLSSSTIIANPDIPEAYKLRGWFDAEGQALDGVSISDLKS
# T2 sequence (P27694 181-432): as above
# T4 sequence (P27694 whole entry): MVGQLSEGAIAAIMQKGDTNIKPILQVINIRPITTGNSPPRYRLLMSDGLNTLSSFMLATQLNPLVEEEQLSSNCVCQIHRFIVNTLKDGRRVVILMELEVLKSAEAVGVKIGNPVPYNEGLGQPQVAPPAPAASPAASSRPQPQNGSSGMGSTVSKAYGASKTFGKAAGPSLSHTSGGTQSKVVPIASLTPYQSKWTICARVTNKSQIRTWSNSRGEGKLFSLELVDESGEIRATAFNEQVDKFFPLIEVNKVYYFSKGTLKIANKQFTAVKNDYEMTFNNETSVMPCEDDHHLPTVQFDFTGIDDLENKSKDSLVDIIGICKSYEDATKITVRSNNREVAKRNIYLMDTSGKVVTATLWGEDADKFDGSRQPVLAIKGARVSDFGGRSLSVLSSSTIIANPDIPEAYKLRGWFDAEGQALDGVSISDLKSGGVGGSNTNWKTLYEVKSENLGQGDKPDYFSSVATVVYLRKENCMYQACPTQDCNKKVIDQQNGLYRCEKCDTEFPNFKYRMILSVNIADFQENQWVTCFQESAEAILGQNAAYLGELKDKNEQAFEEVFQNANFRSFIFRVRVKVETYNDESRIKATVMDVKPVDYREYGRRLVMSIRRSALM
# T4 sequence (P15927 whole entry partner): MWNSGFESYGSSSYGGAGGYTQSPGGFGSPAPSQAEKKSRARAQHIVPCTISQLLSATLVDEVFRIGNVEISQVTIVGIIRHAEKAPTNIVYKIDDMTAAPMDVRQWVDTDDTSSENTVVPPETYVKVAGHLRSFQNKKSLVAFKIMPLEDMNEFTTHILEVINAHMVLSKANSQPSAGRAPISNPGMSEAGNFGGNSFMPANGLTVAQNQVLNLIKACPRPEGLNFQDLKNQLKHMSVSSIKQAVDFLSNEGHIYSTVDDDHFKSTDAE
# T4 sequence (P35244 whole entry partner): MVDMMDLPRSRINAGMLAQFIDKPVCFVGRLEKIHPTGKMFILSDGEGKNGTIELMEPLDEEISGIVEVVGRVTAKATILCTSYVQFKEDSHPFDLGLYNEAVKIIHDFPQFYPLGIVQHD
molecule,measurement,setting,value
O=C1OC(=O)[C@H]2C3C=CC(CC3)[C@@H]12 [CheSS19],mode of inhibition of DBD-A/B after dialysis,[1],irreversible
same,effect on EcSSB binding to ssDNA (result in words),[2],unaffected
same,cellular activity,[3],does not display any cellular activity
same,mode of inhibition of full-length RPA,[4],irreversibly inhibited
CC1(C)C2CCC1(C)C(OC(=O)CBr)C2 (stereo not drawn) [MCI13E],inhibition of DBD-A/B DNA binding (result in words),[5]; EMSA,lack of inhibition
same,IC50,[6],16.1 µM
same,mode of inhibition of full-length RPA after dialysis,[7],inhibition was not reversed by dialysis
same,effect on EcSSB binding to ssDNA (result in words),[2],unaffected
CC1(C)C2CCC1(C)C(OC(=O)CI)C2 (stereo not drawn) [MCI13F],inhibition of DBD-A/B DNA binding (result in words),[5]; EMSA,lack of inhibition
same,IC50,[6],10.1 µM
same,effect on EcSSB binding to ssDNA (result in words),[2],unaffected
CCOc1ccc2cc(C3CC(c4ccc(Br)cc4)=NN3C(=O)CCC(=O)O)c(Cl)nc2c1 (stereo not drawn) [TDRL-505],IC50,"[5]; EMSA, 125 nM DBD-A/B, 12.5 nM DNA, TDRL-505 10–100 μM, read-out: half-maximal inhibition of DBD-A/B DNA binding activity",~40 µM
same,half-maximal inhibition of DBD-A/B relative to intact heterotrimer,[5]; compared with heterotrimer value of ref 12,about twice
same,inhibition at 100 µM,"[5]; highest concentration tested (100 μM), read-out: inhibition of RPA DBD-A/B DNA binding",~90%
same,decrease in EcSSB binding to ssDNA,"[2]; 100 μM, highest concentration tested",~ 20%
same,effect on EcSSB binding to ssDNA (result in words),[2],ineffective
same,IC50,[8],15.7 ± 1.6 µM
same,inhibition of RPA DNA binding,[9],~90%
same,synergy with etoposide,[10],synergize
same,synergy with cisplatin,[10]; human lung cancer cell model,synergize
CTAGAAAGGGGGAAGAAAGGGAAGAGGCCAGAGA (ssDNA) [34-mer],apparent K (half saturation),[11],~125 nM
